Among the data in patent US9499495B2, “Quinazolines and azaquinazolines as dual inhibitors of RAS/RAF/MEK/ERK and PI3K/AKT/PTEN/mTOR pathways” (Asana Biosciences, LLC, priority 2013, dated 2016) are IC50 values, retold here.

For one assay, the system named is pS6RP in RKO cells. Description: In Cell Western (ICW) assay, pS6RP in RKO cells. The conditions noted are these: Homo sapiens, 3 h treatment. The format is cell-based. As to the method: Cell lines A375, A2058 and RKO obtained from the ATCC as provided above, were grown, and after attaining ˜80% confluency were trypsinized, centrifuged and resuspended in fresh media. The cells were seeded at the specified density (20,000 to 50,000) in a 96-well format black-well clear bottom plate (Corning) and incubated overnight at 37° C. in a 5% CO2 incubator. The next day, compound dilutions of test compounds were prepared in 100% DMSO followed by dilutions in respective media. Treatment of test compounds was performed for 3 h at 37° C. in 5% CO2 incubator. Following 3 h drug treatment, the conditional media was discarded and the cells were washed once with cPBS (PBS containing 0.1% magnesium chloride hexahydrate and 0.1% anhydrous calcium chloride) and fixed with 4% paraformaldehyde in cPBS for 1 h at rt. After fixing, the cells were given three washes using cPBST (cPBS containing 0.1% Triton™ X-100 reagent) and then blocked using blocking solution (5% skimmed milk powder or 5% BSA prepared in cPBST) for 2 h at rt with shaking at 300 rpm. The cells were again washed thrice with cPBST and incubated with primary antibody phospho-p44/42 MAPK(Erk1/2)(Thr202/204) antibody (Cell Signaling, Catalog # 9101L), phospho S6 ribosomal protein (Cell Signaling, Catalog #4858L), phospho AKT (Thr 308) (Cell Signaling, Catalog #9275) or phospho AKT (Ser 473) (Cell Signaling, Catalog #4060L) in specified dilutions (1:500-1:2500), prepared in respective blocking solutions, in a racker overnight at 4° C. The next day, the cells were washed with 1× Delfia® wash buffer (4×1 wash) and incubated with secondary antibody (Delfia®-Eu-N1 labeled anti-rabbit antibody; PerkinElmer, Catalog #AD0105; dilutions: 1:2000 to 1:6000 in Delfia® assay buffer (PerkinElmer, Catalog #1244-111)) for 2 h at rt in the dark at 300 rpm. The cells were then given four washes with 1× Delfia® wash buffer and incubated with Wallac Delfia® Enhancement solution (100 μL; PerkinElmer, Catalog #1244-105) for 20 min at rt in the dark at 300 rpm. The fluorescence emission was then read at 615 nm with an excitation wavelength of 340 nm using a Victor V5 Fluorometer (Perkin Elmer, US). The cells were then washed once with 1×cPBS and incubated with 100 μL of 0.5 mg/mL of Hoechst 33258 dye prepared in cPBS and read at 460 nm with 355 nm excitation, thereby evaluating the correction factor.
The % inhibition for the test compounds of formula (I) (new chemical entities (NCEs)) was calculated keeping DMSO control as 0% and the IC50 values were determined using sigmoidal dose response curve fit in GraphPad Prism® v5 software.

In a further assay the target is T1, B-RAFV600E (Homo sapiens, UniProt P15056, V600E).
T1 construct: purchased Millipore, USA 14-557
T1 sequence (P15056 416-766 V600E limits assumed): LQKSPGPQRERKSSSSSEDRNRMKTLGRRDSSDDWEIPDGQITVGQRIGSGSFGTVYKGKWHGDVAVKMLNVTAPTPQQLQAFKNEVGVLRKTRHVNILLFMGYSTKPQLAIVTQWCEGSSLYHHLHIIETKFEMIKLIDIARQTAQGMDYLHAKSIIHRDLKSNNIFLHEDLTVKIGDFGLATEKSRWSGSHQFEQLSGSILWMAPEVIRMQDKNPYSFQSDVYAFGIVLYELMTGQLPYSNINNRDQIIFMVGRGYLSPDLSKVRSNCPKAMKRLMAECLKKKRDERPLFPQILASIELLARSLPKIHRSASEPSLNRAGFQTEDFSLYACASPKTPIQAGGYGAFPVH
Put plainly: B-RAFV600E radiometric assay. The assay is classed as biochemical. The conditions noted are these: read-out: Kinase assay B-Raf. The method in brief:
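B-RAFV600E was preincubated 45 min at rt with compound in 1% DMSO. MEK-K97M (0.5 μg), 5 μM final cold ATP and [γ-32P]ATP were then added for 2 h at rt. Phosphorylated MEK was captured on P81 paper and scintillation-counted; IC50 came from a sigmoidal dose-response fit.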

The test system of the next assay is A375 cells. Put plainly: XTT assay for cell viability, A375 cells. The format is cell-based. The conditions noted are these: Homo sapiens, A-375, 72 h. The method in brief: (§1)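 GI50 derived by sigmoidal dose-response fitting of proliferation normalised to DMSO control (100%). Readout: A450 after 2-3 h with XTT (1 mg/ml)/PMS (25 μM), following 72 h compound treatment at 37° C., 5% CO2 of cells plated at 1000-2000 per well the previous day.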
For orientation: Tetrazolium dyes change colour on reduction, which living cells bring about.

For a further assay, the system named is RKO cells. Put plainly: XTT assay for cell viability, RKO cells. The format is cell-based. The conditions noted are these: Homo sapiens, 72 h. The method in brief: as §1
For the next assay, the system named is pERK in RKO cells. Put plainly: In Cell Western (ICW) assay, pERK in RKO cells. The assay is classed as cell-based. The conditions noted are these: Homo sapiens, 3 h treatment. The method in brief: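 After a 3 h compound treatment at 37 °C, fixed RKO or A375 cells were probed for phospho-ERK1/2 (T202/Y204), phospho-S6RP or phospho-AKT T308 and detected with a Eu-tagged anti-rabbit antibody (ex 340/em 615 nm), with Hoechst signal as the cell-number correction. Inhibition was referenced to DMSO, and IC50 values came from sigmoidal dose-response curves.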

For the compound `C[C@@H]1COCCN1c1nc(-c2cnc(N)nc2)nc2ccc(-c3cccc(NS(=O)(=O)CCCF)c3F)nc12` [Example 97, (R)-N-(3-(2-(2-aminopyrimidin-5-yl)-4-(3-methylmorpholino)pyrido[3,2-d]pyrimidin-6-yl)-2-fluorophenyl)-3-fluoropropane-1-sulfonamide], the IC50 was 100 to 1000 nM with pS6RP in RKO cells, 1 to 100 nM on B-RAFV600E, 100 to 1000 nM with A375 cells and 100 to 1000 nM in the assay on RKO cells.
Regarding `Cc1cc(-c2cccc(NS(=O)(=O)CCCF)c2F)cc2c(N3CCOCC3)nc(-c3cnc(N)nc3)nc12` [Example 116, N-(3-(2-(2-aminopyrimidin-5-yl)-8-methyl-4-morpholinoquinazolin-6-yl)-2-fluorophenyl)-3-fluoropropane-1-sulfonamide], the IC50 at B-RAFV600E and with A375 cells was 1 to 100 nM in each case.
For the compound `O=S(=O)(CCCF)Nc1cccc(-c2ccc3nc(-c4ccc(NCCO)nc4)nc(N4CCOCC4)c3n2)c1F` [Example 99, 3-fluoro-N-(2-fluoro-3-(2-(6-((2-hydroxyethyl)amino)pyridin-3-yl)-4-morpholinopyrido[3,2-d]pyrimidin-6-yl)phenyl)propane-1-sulfonamide], the IC50 in the assay on pS6RP in RKO cells fell in the range of 100 to 1000 nM; at B-RAFV600E, 1 to 100 nM; in the assay with A375 cells, 100 to 1000 nM; in the assay with RKO cells it was 100 to 1000 nM; with pERK in RKO cells, 1 to 100 nM.
Turning to `COc1cc(-c2cccc(NS(=O)(=O)CCCF)c2F)cc2c(N3CCOC[C@H]3C)nc(-c3cnc(N)nc3)nc12` [Example 43, (R)-N-(3-(2-(2-aminopyrimidin-5-yl)-8-methoxy-4-(3-methylmorpholino)quinazolin-6-yl)-2-fluorophenyl)-3-fluoropropane-1-sulfonamide], the IC50 in the assay with pS6RP in RKO cells lay in the range of 100 to 1000 nM; on B-RAFV600E, 1 to 100 nM; in the assay on A375 cells it was 1 to 100 nM; with RKO cells it was 100 to 1000 nM; with pERK in RKO cells, 1 to 100 nM.
Take `C[C@@H]1COCCN1c1nc(-c2ccc(N)nc2)nc2ccc(-c3cccc(NS(=O)(=O)CCCF)c3F)nc12` [Example 96, (R)-N-(3-(2-(6-aminopyridin-3-yl)-4-(3-methylmorpholino)pyrido[3,2-d]pyrimidin-6-yl)-2-fluorophenyl)-3-fluoropropane-1-sulfonamide]: the IC50 is 100 to 1000 nM in the assay with pS6RP in RKO cells; 1 to 100 nM at B-RAFV600E; 1 to 100 nM in the assay on A375 cells; 100 to 1000 nM with RKO cells; 1 to 100 nM in the assay with pERK in RKO cells.
With `CNC(=O)Nc1ccc(-c2nc(N3CCOCC3)c3cc(-c4cccc(NS(=O)(=O)CCCF)c4F)cc(OC)c3n2)cn1` [Example 39, 3-fluoro-N-(2-fluoro-3-(8-methoxy-2-(6-(3-methylureido)pyridin-3-yl)-4-morpholinoquinazolin-6-yl)phenyl)propane-1-sulfonamide], the IC50 at B-RAFV600E and with A375 cells was 1 to 100 nM each time.
With `CCCS(=O)(=O)Nc1cccc(-c2ccc3nc(-c4ccc(N)nc4)nc(N4CCOCC4)c3n2)c1F` [Example 86, N-(3-(2-(6-aminopyridin-3-yl)-4-morpholinopyrido[3,2-d]pyrimidin-6-yl)-2-fluorophenyl)propane-1-sulfonamide], the IC50 at B-RAFV600E, in the assay with A375 cells and in the assay with RKO cells was 100 to 1000 nM throughout.
With `O=S(=O)(CCCF)Nc1cccc(-c2ccc3nc(-c4ccc(NCCCO)nc4)nc(N4CCOCC4)c3n2)c1F` [Example 111, 3-fluoro-N-(2-fluoro-3-(2-(6-((3-hydroxypropyl)amino)pyridin-3-yl)-4-morpholinopyrido[3,2-d]pyrimidin-6-yl)phenyl)propane-1-sulfonamide], the IC50 on B-RAFV600E fell in the range of 1 to 100 nM; with A375 cells, 100 to 1000 nM.
For the compound `COc1cc(-c2cccc(NS(=O)(=O)CCCF)c2F)cc2c(N3CCOC[C@H]3C)nc(-c3cnc(N)cc3F)nc12` [Example 135, (R)-N-(3-(2-(6-amino-4-fluoropyridin-3-yl)-8-methoxy-4-(3-methylmorpholino)quinazolin-6-yl)-2-fluorophenyl)-3-fluoropropane-1-sulfonamide], the IC50 was in the range of 100 to 1000 nM with pS6RP in RKO cells; 1 to 100 nM at B-RAFV600E; 1 to 100 nM in the assay on A375 cells; 100 to 1000 nM in the assay on RKO cells; 1 to 100 nM in the assay with pERK in RKO cells.
Regarding `Nc1cc(C(F)(F)F)c(-c2nc(N3CCOCC3)c3nc(-c4cccc(NS(=O)(=O)c5c(F)cccc5F)c4F)ccc3n2)cn1` [Example 106, N-(3-(2-(6-amino-4-(trifluoromethyl)pyridin-3-yl)-4-morpholinopyrido[3,2-d]pyrimidin-6-yl)-2-fluorophenyl)-2,6-difluorobenzenesulfonamide], the IC50 lay in the range of 1 to 100 nM on B-RAFV600E and 100 to 1000 nM in the assay on A375 cells.
On the same counts, the results for `C[C@H]1COCCN1c1nc(-c2cnc(N)cc2F)nc2ccc(-c3cccc(NS(=O)(=O)CCCF)c3F)nc12` [Example 129, (S)-N-(3-(2-(6-amino-4-fluoropyridin-3-yl)-4-(3-methylmorpholino)pyrido[3,2-d]pyrimidin-6-yl)-2-fIuorophenyl)-3-fluoropropane-1-sulfonamide] are 1 to 100 nM and 100 to 1000 nM.
On the same counts, the results for `Nc1ncc(-c2nc(N3CCOCC3)c3cc(-c4cccc(NS(=O)(=O)CCCF)c4F)cc(N4CCOCC4)c3n2)cn1` [Example 69, N-(3-(2-(2-aminopyrimidin-5-yl)-4,8-dimorpholinoquinazolin-6-yl)-2-fluorophenyl)-3-fluoropropane-1-sulfonamide] are 1 to 100 nM and 1 to 100 nM.
`CCCS(=O)(=O)Nc1cccc(-c2ccc3nc(-c4cnc(N)nc4)nc(N4CCOCC4)c3n2)c1F` [Example 7, N-(3-(2-(2-aminopyrimidin-5-yl)-4-morpholinopyrido[3,2-d]pyrimidin-6-yl)-2-fluorophenyl)propane-1-sulfonamide]: the IC50 at B-RAFV600E, in the assay on A375 cells and with RKO cells was 100 to 1000 nM each time.
On to `Nc1ccc(-c2nc(N3CCOCC3)c3nc(-c4cccc(NS(=O)(=O)c5c(F)cccc5F)c4F)ccc3n2)cn1` [Example 95, N-(3-(2-(6-aminopyridin-3-yl)-4-morpholinopyrido[3,2-d]pyrimidin-6-yl)-2-fluorophenyl)-2,6-difluorobenzenesulfonamide], for which the IC50 on B-RAFV600E is 1 to 100 nM; in the assay with A375 cells it was 100 to 1000 nM; in the assay with RKO cells, 1000 to 10000 nM.
For the compound `COc1cc2nc(-c3cnc(N)nc3)nc(N3CCOCC3)c2cc1-c1cccc(NS(=O)(=O)CCCF)c1F` [Example 11, N-(3-(2-(2-aminopyrimidin-5-yl)-7-methoxy-4-morpholinoquinazolin-6-yl)-2-fluorophenyl)-3-fluoropropane-1-sulfonamide], the IC50 with pS6RP in RKO cells fell in the range of 100 to 1000 nM; at B-RAFV600E, 1 to 100 nM; in the assay with A375 cells it was 100 to 1000 nM; in the assay with RKO cells, 100 to 1000 nM.
`Cc1cc(-c2nc(N3CCOCC3)c3nc(-c4cccc(NS(=O)(=O)CCCF)c4F)ccc3n2)cnc1N` [Example 90, N-(3-(2-(6-amino-5-methylpyridin-3-yl)-4-morpholinopyrido[3,2-d]pyrimidin-6-yl)-2-fluorophenyl)-3-fluoropropane-1-sulfonamide]: the IC50 on B-RAFV600E lay in the range of 1 to 100 nM; with A375 cells, 100 to 1000 nM.
